Test results: patent US20230002736A1, “ENDODERM DIFFERENTIATION FROM PLURIPOTENT STEM CELL LINES” (priority 2019, published 2023)

Tests used:
[1] = tested on: iPS cells; test: Growth of iPS cells in the presence of doxycycline (dose response); format: cell-based, human; conditions: FIG. 7B
Protocol: The media conditions to maintain human iPSCs have all been previously described (40). For passaging the cells Accutase (StemCell Technologies, Vancouver, BC) was used for 5 minutes at 37° C. and then stopped with iPSC media containing 10 μM Y-27632 (Selleckchem, Houston, Tex.) (41). The dissociated IPSCs were seeded on new plates with media containing Y-27632, and after 24 hours replaced with media alone. iPSC media was changed daily.
We also did a complete dose-response curve on the growth of iPS cells in the presence of doxycycline up to 30 μg/mL, with toxicity observed beginning at the 10 μg/mL level (FIG. 7B). Beyond effects on iPS cells, we further confirmed the ability of doxycycline to support the induction of iPSCs to endoderm. For this we performed immunohistochemical staining for markers of endoderm, including CXCR4, SOX17, FOXA2, and HNF16 (FIG. 2A and 2B). […] More importantly, the ML1 protocol allowed induction of complete monolayers of endoderm from virtually any iPSC. Compared to many of the other protocols that we tested for poorly differentiating iPS cell lines(6, 8), we could actually differentiate most lines using the ML1 protocol, but only a fraction of them using the other protocols. […]

[2] = tested on: iPSC-derived hepatocytes; test: RNA Sequencing of iPSCs fully differentiated to hepatocytes; format: cell-based, human; conditions: 5 paired iPSCs, doxycycline during endoderm phase
Protocol: Differentiation of Definitive Endoderm to hepatocytes (days 8-23). iPSC-derived human endoderm prepared as described herein was cultured continuously on Matrigel or split 1:2 onto Matrigel plates for hepatic differentiation. Definitive endoderm (DE) was cultured in Iscove's modified Dulbecco's medium (Gibco catalog #supplemented with Gem21 NeuroPlex without insulin (Gemini Bio-Products catalog #400-962), Glutagro, non-essential amino acids (1×, Gibco catalog #11-140-050), 0.3 mM monothioglycerol, 5 μg/mL human insulin (Sigma), and 100 nM dexamethasone. To induce hepatoblasts, cells were treated with FGF2 (10 ng/mL) and BMP4 (20 ng/mL) for 5 days. During this phase, cells can be passaged using accutase and split at least 2 to 4× to increase yield and quality of final product again onto Matrigel with the addition of 10 μM Y-27632 and 2 μM doxycycline to increase cell survival during accutase treatment and splitting. This phase and the next were grown at low oxygen (4-6%) and 5% CO2. […]
RNA isolation, Real-Time PCR analysis, and RNA Sequencing. […] Quantitative Real-Time PCR was performed using FastStart Universal SYBR Green, Roche Diagnostics (Indianapolis, IN). […] On average, 27,642,407 raw reads were obtained and mapped. Raw reads were subjected to quality control. Clean reads were analyzed by Gene Ontology analysis, KEGG pathway enrichment, and cluster analysis. […]

C[C@H]1c2cccc(O)c2C(=O)C2=C(O)[C@]3(O)C(=O)C(C(N)=O)=C(O)[C@@H](N(C)C)[C@@H]3[C@@H](O)[C@@H]21 [doxycycline]
titration of doxycycline, outcome in words [1]: an optimal level of doxycycline and a toxic level
concentration at which toxicity begins ([1]; dose-response up to 30 μg/mL): 10000 ng/mL
effect on final iPSC-derived hepatocytes (principal component analysis) [2]: did not alter the final product
